The values that follow come from patent US10858316B2, “Small molecule inhibitors of the MCL-1 oncoprotein and uses thereof” (University of Maryland, Baltimore, priority 2015, dated 2020).

One test deals with Mcl-1 (Homo sapiens (Human), UniProt Q07820). Briefly: Fluorescence polarization competition assay (FPCA), Mcl-1 / FITC-Bak BH3 peptide. The test is classed as binding. To be noted: FPC assay; read-out: Mcl-1 Ki. An excerpt: The tagged protein was initially purified from the crude cell lysate by immobilized metal affinity chromatography (IMAC) chromatography (GE Healthcare Life Sciences), and after dialysis to remove the imidazole the affinity tag was cleaved using PreScission Protease (GE Healthcare Life Sciences). A Sephacryl S-200 size exclusion column was used as a final purification step before the protein was concentrated with a 10,000 MWCO centifugal filter concentrator (Millipore).
Chain of Mcl-1 (Q07820 172-327): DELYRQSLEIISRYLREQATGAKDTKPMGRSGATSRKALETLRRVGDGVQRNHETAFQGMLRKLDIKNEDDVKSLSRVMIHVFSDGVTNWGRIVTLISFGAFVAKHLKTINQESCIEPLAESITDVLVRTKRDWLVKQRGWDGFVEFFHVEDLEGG
Fluorescence polarization experiments were conducted using a BMG PHERAstar FS multimode microplate reader equipped with two PMTs for simultaneous measurements of the perpendicular and parallel fluorescence emission. The assays were performed in black polypropylene 384-well microplate (Costar) with a final volume of 20 microliter. […] Regression analysis was carried out using Origin (OriginLab, Northampton, Mass.) to fit the data to the Hill equation (1) to determine the initial binding affinity (KD) and the IC50 in the FPCA. For the fluorescence polarization competition titrations, an equation derived by Nikolovska-Coleska et al. was used to calculate the Ki from the IC50 data.
The target molecules were assayed for their abilities to disrupt the Mcl-1-Bak-BH3 PPI in a fluorescence polarization competition (FPC) assay with Mcl-1 and FITC-labeled Bak-BH3 peptide. Further details on the FPC assay can be found in the Supporting Information.
A word on the Ki: it is a measure of affinity in units of concentration, obtained from inhibition or displacement. As to `O=C(O)C1Cc2ccccc2N(S(=O)(=O)c2ccc(Br)cc2)C1` (racemic) [±-8b], the Ki was determined as 117 µM.
On the same count and under the same terms, to `O=C(O)C1Cc2ccccc2N(S(=O)(=O)c2ccc(-c3ccccc3)cc2)C1` (racemic) [±-8d] belongs more than 500 µM.

Staying with this test, now noted: FPCA.
Consider `COC(=O)C1Cc2ccccc2N(S(=O)(=O)c2ccc(Oc3cc(C)c(Cl)c(C)c3)cc2)C1` (racemic) [±-9], for which the “Binding affinity to Mcl-1 in vitro” value was “no appreciable affinity”.

Staying with this test, now noted: FPCA with FITC-Bak; Ki from IC50 by Nikolovska-Coleska equation; listed as 8c; read-out: Mcl-1 Ki.
Turning to `CC(C)CN(c1ccc(C(=O)O)cc1)S(=O)(=O)c1ccc(-c2ccccc2)cc1` [LC-3-030 8c], the Ki was 16.7 µM.

Still in this test, the particulars now being: FPCA with FITC-Bak; Ki from IC50 by Nikolovska-Coleska equation; read-out: Mcl-1 Ki.
Take `CC(C)CN(c1ccc(C(=O)O)cc1)S(=O)(=O)c1ccccc1` [LC-3-029 8a]: the inhibition constant (Ki) is more than 500 µM.
The same measure, in the same setting: to `CC(=O)OCOC(=O)c1ccc(N(CC(C)C)S(=O)(=O)c2ccc(Oc3ccccc3)cc2)cc1O` [LC-4-141 22] belongs more than 500 µM; to `O=C(O)c1cc(S(=O)(=O)Nc2cccc(Br)c2)c2ccccc2c1O` [Compound 3n, 4-(N-(3-Bromophenyl)sulfamoyl)-1-hydroxy-2-naphthoic Acid], 5.64 ± 1.76 µM; to `O=C(O)c1ccc2c(c1)CCCN2S(=O)(=O)c1ccc2ccccc2c1` [LC-3-006, 1-(naphthalen-2-ylsulfonyl)-1,2,3,4-tetrahydroquinoline-6-carboxylic acid], 22 µM.
As for `CC(C)CN(c1ccc(C(=O)O)c(O)c1)S(=O)(=O)c1ccc(Oc2ccc(Cl)cc2Cl)cc1` [LC-4-111 13aj], the Ki stood at 2.74 ± 0.258 µM.
The same measure, in the same setting: to `O=C(O)C1Cc2ccccc2N(S(=O)(=O)c2ccc(Br)cc2)C1` (racemic) [±-8b] belongs 117 ± 19 µM; to `O=C(O)c1ccc(N(C2CCCC2)S(=O)(=O)c2ccc3ccccc3c2)cc1O` [LC-4-083 13ba], 24.7 ± 9.45 µM.
Still for that read-out and setting: as for `O=C(O)c1cc(S(=O)(=O)Nc2ccccc2-c2ccccc2)c2ccccc2c1O` [Compound 3r, 4-(N-([1,1′-Biphenyl]-2-yl)sulfamoyl)-1-hydroxy-2-naphthoic Acid], the figure is 8.5 ± 1.34 µM; as for `O=C(O)c1ccc2c(c1)CCCN2S(=O)(=O)c1ccc(-c2ccccc2)cc1` [LC-3-002, 1-([1,1′-biphenyl]-4-ylsulfonyl)-1,2,3,4-tetrahydroquinoline-6-carboxylic acid], 14 µM; as for `O=C(O)C1Cc2ccccc2N(S(=O)(=O)c2ccc3ccccc3c2)C1` (racemic) [±-8e], 59 ± 6 µM.
For the compound `CC(C)CN(c1cccc(C(=O)O)c1)S(=O)(=O)c1ccc2ccccc2c1` [4jc177-3 18ab], the Ki came out at 61.7 ± 4.73 µM.
As to `Cc1cc(C)cc(Oc2ccc(S(=O)(=O)N(CC(C)C)c3ccc(C(=O)O)c(O)c3)cc2)c1` [LC-4-100 13ai], the Ki is 2.96 ± 0.286 µM.
As to `Cc1cc(Oc2ccc(S(=O)(=O)N3CCCc4cc(C(=O)O)ccc43)cc2)cc(C)c1Cl` [LC-3-012, 1-((4-(4-chloro-3,5-dimethylphenoxy)phenyl)sulfonyl)-1,2,3,4-tetrahydroquinoline-6-carboxylic acid], the Ki stood at 0.332 µM.
`O=C(O)c1cc(S(=O)(=O)Nc2ccccc2)c2ccccc2c1O` [Compound 3l, 1-Hydroxy-4-(N-phenylsulfamoyl)-2-naphthoic acid]: the Ki came to 106 ± 26 µM.
On the same count and under the same terms, to `Cc1ccc(NS(=O)(=O)c2cc(C(=O)O)c(O)c3ccccc23)cc1` [Compound 3x, 1-Hydroxy-4-(N-(p-tolyl)sulfamoyl)-2-naphthoic Acid] belongs 34.3 ± 1 µM.
Regarding `O=C(O)C1Cc2ccccc2N(S(=O)(=O)c2ccc(-c3ccccc3)cc2)C1` (racemic) [±-8d], the inhibition constant Ki is more than 500 µM.
On the same count and under the same terms, as for `COC(=O)C1Cc2ccccc2N(S(=O)(=O)c2ccc(Oc3cc(C)c(Cl)c(C)c3)cc2)C1` (racemic) [±-9], the figure is more than 500 µM; as for `O=C(O)c1cc(S(=O)(=O)N2CCCCC2)c2ccccc2c1O` [Compound 3i, 1-Hydroxy-4-(piperidin-1-ylsulfonyl)-2-naphthoic Acid], 2.95 ± 0.43 µM.
Same read-out and setting: to `CC(C)CN(c1cccc(C(=O)O)c1)S(=O)(=O)c1ccccc1` [4jc177-1 18aa] belongs more than 500 µM; to `COc1c(C(=O)O)cc(S(=O)(=O)N(CC(C)C)c2ccc(Br)cc2)c2ccccc12` [Compound 3cd, 4-(N-(4-Bromophenyl)-N-isobutylsulfamoyl)-1-methoxy-2-naphthoic Acid], 23.4 ± 2.6 µM; to `CC(C)CN(c1ccc(C(=O)O)cc1)S(=O)(=O)c1ccc(F)cc1` [LC-3-025 8d], more than 500 µM.
As to `CC(C)CN(c1ccc(C(=O)O)cc1)S(=O)(=O)c1ccc(-c2ccccc2)cc1` [LC-3-030 8c], the Ki was determined as 16.7 ± 2.28 µM.
As to `O=C(O)c1cc(S(=O)(=O)Nc2ccc(Oc3ccccc3)cc2)c2ccccc2c1O` [Compound 3bb, 1-Hydroxy-4-(N-(4-phenoxyphenyl)sulfamoyl)-2-naphthoic Acid], the Ki came out at 1.15 ± 0.28 µM.
In the case of `O=C(O)c1cc(S(=O)(=O)NCc2ccccc2Cl)c2ccccc2c1O` [Compound 3d, 4-(N-(2-Chlorobenzyl)sulfamoyl)-1-hydroxy-2-naphthoic Acid], the Ki came to 50.3 ± 11.8 µM.
As to `CC(C)CN(c1ccc(-c2cc(=O)[nH]o2)cc1)S(=O)(=O)c1ccc(Oc2ccccc2)cc1` [LC-5-069Toptop 26], the Ki was more than 500 µM.
On the same count and under the same terms, as for `O=C(O)c1cc(S(=O)(=O)NCc2cccc(Cl)c2)c2ccccc2c1O` [Compound 3e, 4-(N-(3-Chlorobenzyl)sulfamoyl)-1-hydroxy-2-naphthoic Acid], the figure is 5.03 ± 2.78 µM.
On the same count and under the same terms, to `NS(=O)(=O)c1cc(C(=O)O)c(O)c2ccccc12` [Compound 3b, 1-Hydroxy-4-sulfamoyl-2-naphthoic Acid] belongs 99 µM.
On the same count and under the same terms, to `CC(C)CN(c1ccc(-c2nnn[nH]2)cc1)S(=O)(=O)c1ccc(Oc2ccccc2)cc1` [LC-5-068 24] belongs 3.3 ± 0.26 µM.

The same test, now with this note: fluorescence polarization competition assay; read-out: Ki (μM) Mcl-1.
Consider `CC(C)CN(c1ccc(C(=O)O)c(O)c1)S(=O)(=O)c1ccc2ccccc2c1` [Compound 4jc117-3, 2-hydroxy-4-(N-isobutylnaphthalene-2-sulfonamido)benzoic acid], for which the inhibition constant Ki was found to be 60.3 ± 24.4 µM.

Staying with this test, now noted: read-out: Mcl-1 Ki.
For `O=C(O)C1Cc2ccccc2N(S(=O)(=O)c2ccc(F)cc2)C1` (racemic) [SF-5-136, (±)-1-((4-fluorophenyl)sulfonyl)-1,2,3,4-tetrahydroquinoline-3-carboxylic acid], the inhibitory constant (Ki) is more than 1000 µM.
Same read-out and setting: to `O=C(O)C1Cc2ccccc2N(S(=O)(=O)c2ccc(-c3ccccc3)cc2)C1` (racemic) [SF-5-133, (±)-1-([1,1′-biphenyl]-4-ylsulfonyl)-1,2,3,4-tetrahydroquinoline-3-carboxylic acid] belongs 12 µM.

The same test, now with this note: ΔG=−RTlnKi from experimental Ki.
In the case of `O=C(O)c1cc(S(=O)(=O)NCc2cccc(Cl)c2)c2ccccc2c1O` [3e; 5JC71], the “Mcl-1 Exp ΔG” value is -7.22 kcal/mol.
Still for that read-out and setting: as for `N#Cc1cccc(NS(=O)(=O)c2cc(C(=O)O)c(O)c3ccccc23)c1` [3ad; 5JC75-2], the figure is -6.23 kcal/mol; as for `O=C(O)c1cc(S(=O)(=O)Nc2cccc(Br)c2)c2ccccc2c1O` [3n; TA-1-020], -7.16 kcal/mol.
For `O=C(O)c1cc(S(=O)(=O)NCc2ccccc2)c2ccccc2c1O` [3c; SF-5-311], the “Mcl-1 Exp ΔG” value is -5.79 kcal/mol.
The same measure, in the same setting: to `O=C(O)c1cc(S(=O)(=O)Nc2ccccc2Br)c2ccccc2c1O` [3m; TA-1-019] belongs -7.04 kcal/mol; to `O=C(O)c1cc(S(=O)(=O)NCc2ccccc2Cl)c2ccccc2c1O` [3d; 5JC73-2], -5.86 kcal/mol; to `COc1c(C(=O)O)cc(S(=O)(=O)N(CC(C)C)c2ccc(Br)cc2)c2ccccc12` [Compound 3cd, 4-(N-(4-Bromophenyl)-N-isobutylsulfamoyl)-1-methoxy-2-naphthoic Acid], -6.31 kcal/mol.
Take `O=C(O)c1cc(S(=O)(=O)Nc2ccc(-c3ccccc3)cc2)c2ccccc2c1O` [3t; LC-3-192]: the “Mcl-1 Exp ΔG” value was -7.93 kcal/mol.
Still for that read-out and setting: to `NS(=O)(=O)c1cc(C(=O)O)c(O)c2ccccc12` [3b; SF-5-294] belongs -5.46 kcal/mol; to `Cc1ccc(NS(=O)(=O)c2cc(C(=O)O)c(O)c3ccccc23)cc1` [3x; 5JC74-1], -6.09 kcal/mol; to `O=C(O)c1cc(S(=O)(=O)Nc2ccc(Oc3ccc(Cl)cc3)cc2)c2ccccc2c1O` [3bh; SF-5-304], -9.22 kcal/mol.
